Series [1] can be described thus: Body weight and organ examination of tumour-bearing mice. The series is classed as in vivo, NOD/SCID mice. Particulars: 14 days, individual mice. The procedure: (§1) 7-week old female NOD/SCID mice were taken and inoculated subcutaneously with 1×10^7 cells (0.2 ml) per mouse in axilla, with human acute myelogenous leukemia KG-1a cells on the left and human acute monocytic leukemia THP-1 cells on the right. When tumors grew to a tumor size of around 0.5 cm, the mice were randomized into groups with 3 mice each. An equivalent amount of PBS was used for the control group, and the 14-D-Valine-TPL group was divided into two groups with 0.2 mg/kg body weight and 0.4 mg/kg body weight: intragastric administration 2 times a day (one at 8 a.m. and one at 4 p.m.) for consecutive 14 days of treatment. An observation was made for total 30 days, during which the conditions of the mice such as tumor size, weight, activity, diet, and the like were measured. At the end of the experiment, the mice were sacrificed, tumor tissues were taken and the tumors were weighed, and major organs and tissues of the mice such as liver, spleen, heart, lung, large intestine, small intestine, and the like were examined.
as §1, with “the left.” for “the left and human acute monocytic leukemia THP-1 cells on the right.”, “around 50-100 mm^3,” for “around 0.5 cm,”, “the TPL-LLV” for “the 14-D-Valine-TPL”, “with 0.23” for “with 0.2”, “and 0.46” for “and 0.4”, “intragastric administration,” for “intragastric administration”
as §1, with “the left.” for “the left and human acute monocytic leukemia THP-1 cells on the right.”, “around 50-100 mm^3,” for “around 0.5 cm,”, “the TPL-DLV” for “the 14-D-Valine-TPL”, “with 0.23” for “with 0.2”, “and 0.46” for “and 0.4”, “intragastric administration,” for “intragastric administration”
7-week old female NOD/SCID mice were taken and inoculated subcutaneously with 1×10^7 cells (0.2 ml) per mouse in axilla, with human acute myelogenous leukemia KG-1a cells on the left. When tumors grew to a tumor size of around 50-100 mm^3, the mice were randomized into groups with 3 mice each. An equivalent amount of PBS was used for the control group, and the TPL-DLV group was divided into two groups with 0.32 mg/kg body weight and 0.64 mg/kg body weight: intragastric administration, 2 times a day (one at 8 a.m. and one at 4 p.m.) for consecutive 14 days of treatment. An observation was made for total 30 days, during which the conditions of the mice such as tumor size, weight, activity, diet, and the like were measured. At the end of the experiment, the mice were sacrificed, tumor tissues were taken and the tumors were weighed, and major organs and tissues of the mice such as liver, spleen, heart, lung, large intestine, small intestine, and the like were examined. […]

For series [2], the system named is human chronic myelogenous leukemia K562/ADR cells. The series can be described thus: K562/ADR subcutaneous xenograft in NOD/SCID mice. The series is classed as in vivo. Particulars: for growth of K562/ADR cells in mice in vivo (in words): K562/ADR xenograft, intragastric 2 times a day, dose-dependent effect; for Tumor volume: K562/ADR. The procedure: (§2) 7-week old female NOD/SCID mice were taken and inoculated subcutaneously with 1×10^7 cells (0.2 ml) per mouse in axilla, with human K562/ADR cells on the left. When tumors grew to a tumor size of around 50-100 mm^3, the mice were randomized into groups with 3 mice each. An equivalent amount of PBS was used for the control group, and the TPL-DDV group was divided into two groups with 0.23 mg/kg body weight and 0.46 mg/kg body weight: intragastric administration, 2 times a day (one at 8 a.m. and one at 4 p.m.) for consecutive 14 days of treatment. An observation was made for total 30 days, during which the conditions of the mice such as tumor size, weight, activity, diet, and the like were measured. At the end of the experiment, the mice were sacrificed, tumor tissues were taken and the tumors were weighed, and major organs and tissues of the mice such as liver, spleen, heart, lung, large intestine, small intestine, and the like were examined.
as §2, with “TPL-LV” for “TPL-DDV”, “0.2” for “0.23”, “0.4” for “0.46”

Series [3] has as its system human acute myelogenous leukemia KG-1a cells. The series can be described thus: KG-1a subcutaneous xenograft in NOD/SCID mice. Particulars: for growth of KG-1a in mice in vivo (in words): KG-1a xenograft, intragastric 2 times a day, dose-dependent effect; for Tumor volume: KG-1a. The series is classed as in vivo. Here is the method:
as §1
(§3) 7-week old female NOD/SCID mice were taken and inoculated subcutaneously with 1×10^7 cells (0.2 ml) per mouse in axilla, with human acute myelogenous leukemia KG-1a cells on the left. When tumors grew to a tumor size of around 50-100 mm^3, the mice were randomized into groups with 3 mice each. An equivalent amount of PBS was used for the control group, and the TPL-LLV group was divided into two groups with 0.23 mg/kg body weight and 0.46 mg/kg body weight: intragastric administration, 2 times a day (one at 8 a.m. and one at 4 p.m.) for consecutive 14 days of treatment. An observation was made for total 30 days, during which the conditions of the mice such as tumor size, weight, activity, diet, and the like were measured. At the end of the experiment, the mice were sacrificed, tumor tissues were taken and the tumors were weighed, and major organs and tissues of the mice such as liver, spleen, heart, lung, large intestine, small intestine, and the like were examined.
as §3, with “TPL-DLV” for “TPL-LLV”
7-week old female NOD/SCID mice were taken and inoculated subcutaneously with 1×10^7 cells (0.2 ml) per mouse in axilla, with human acute myelogenous leukemia KG-1a cells on the left. When tumors grew to a tumor size of around 50-100 mm^3, the mice were randomized into groups with 3 mice each. An equivalent amount of PBS was used for the control group, and the TPL-DLV group was divided into two groups with 0.32 mg/kg body weight and 0.64 mg/kg body weight: intragastric administration, 2 times a day (one at 8 a.m. and one at 4 p.m.) for consecutive 14 days of treatment. An observation was made for total 30 days, during which the conditions of the mice such as tumor size, weight, activity, diet, and the like were measured. At the end of the experiment, the mice were sacrificed, tumor tissues were taken and the tumors were weighed, and major organs and tissues of the mice such as liver, spleen, heart, lung, large intestine, small intestine, and the like were examined.

A further series deals with THP-1. The series can be described thus: MTT growth inhibition, THP-1 cells, 72 h. The series is classed as cell-based. Particulars: Homo sapiens, THP-1, MTT. Here is the method:
(§4) 5000 well-grown leukemia cells were taken and seeded into wells of a 96-well cell culture plate. The medium was 1640 cell medium containing 10% fetal bovine serum. 14-D-Valine-TPL with different concentrations was added, and after being uniformly mixed, the plate was placed in a carbon dioxide (5% CO2) cell incubator, and incubated at 37° C. for 72 hours. The concentration of live cells was then determined using the MTT assay. In this experiment, the cell viability in the control group (without the compound treatment) was set to be 100%, and the cell viability (%) after the action of the compound and the half maximal growth inhibitory concentration of leukemia cells at 72 hours (IC50 value at 72 hours) were calculated.

The test system of a further series is KG-1. Nature of the series: MTT growth inhibition, KG-1 cells, 72 h. The conditions noted are these: Homo sapiens, KG-1, MTT. The series is classed as cell-based. Here is the method:
as §4

The subject of another series is pancreatic cancer. Particulars: cited from earlier work.

Molecules are shown by their SMILES. pIC50: −log10 of the molar value. Values joined by “and” are separate entries in the source; they are usually repeats but may differ in a detail not shown here. Equal values may be shown once.

Regarding `CC(C)[C@@H](N)C(=O)N[C@@H](C(=O)O[C@@H]1[C@@]2(C(C)C)O[C@H]2[C@@H]2O[C@]23[C@]12O[C@H]2C[C@H]1C2=C(CC[C@@]13C)C(=O)OC2)C(C)C` [14-D-Valine-D-Valine-TPL, 14-Dextro-Valine-Dextro-Valine-Triptolide], the Body weight is 19.7 g and 21.2 g and 19.1 g in series [1] (K562/ADR-bearing mice, 0.23 mg/kg intragastric 2 times a day, listed as DDV, 0.23 mg/kg); 20.5 g and 23.2 g and 19.3 g in series [1] (K562/ADR-bearing mice, 0.46 mg/kg intragastric 2 times a day, listed as DDV, 0.46 mg/kg). Also, the “growth of K562/ADR cells in mice in vivo (in words)” value in series [2] (14 days) is reported as “significantly inhibit the growth”. In addition, the Tumor volume in series [2] (0.23 mg/kg, Overall) stood at 0 mm^3; in series [2] (0.46 mg/kg, Overall), 0 mm^3; in series [2] (trifluoroacetate 0.23 mg/kg intragastric 2 times a day, 14 days, individual mice), 0 mm^3; in series [2] (trifluoroacetate 0.46 mg/kg intragastric 2 times a day, 14 days, individual mice), 0 mm^3.

With `CC(C)[C@]12O[C@H]1[C@@H]1O[C@]13[C@]1(O[C@H]1C[C@H]1C4=C(CC[C@@]13C)C(=O)OC4)[C@@H]2OC(=O)[C@H](Cc1ccc(O)cc1)NC(=O)[C@@H](N)Cc1ccccc1` [14-L-Phenylalanyl-L-tyrosine-TPL, 14-Levo-Phenylalanyl-Levo-tyrosine-Triptolide], the “growth of KG-1a in mice in vivo (in words)” value in series [3] (14 days) was “significantly inhibit the growth”. For the same compound, the Tumor volume was 0 mm^3 in series [3] (0.64 mg/kg, Overall); 168.07 mm^3 and 93.12 mm^3 and 131.17 mm^3 in series [3] (trifluoroacetate 0.32 mg/kg intragastric 2 times a day, 14 days, individual mice, listed as LPT); 0 mm^3 in series [3] (trifluoroacetate 0.64 mg/kg intragastric 2 times a day, 14 days, individual mice). The Body weight in series [1] (KG-1a-bearing mice, 0.32 mg/kg intragastric 2 times a day, listed as LPT, 0.32 mg/kg) is 20 g and 20.4 g and 21.4 g; in series [1] (KG-1a-bearing mice, 0.64 mg/kg intragastric 2 times a day, listed as LPT, 0.64 mg/kg), 19.4 g and 16.1 g and 17.4 g.

Take `CC(C)[C@H](N)C(=O)N[C@@H](C(=O)O[C@@H]1[C@@]2(C(C)C)O[C@H]2[C@@H]2O[C@]23[C@]12O[C@H]2C[C@H]1C2=C(CC[C@@]13C)C(=O)OC2)C(C)C` [14-L-Valine-D-Valine-TPL, 14-Levo-Valine-Dextro-Valine-Triptolide]: the “growth of KG-1a in mice in vivo (in words)” value in series [3] (14 days) is “significantly inhibit the growth”. Besides, the Tumor volume was 562.66 mm^3 and 505.81 mm^3 and 1038.41 mm^3 in series [3] (trifluoroacetate 0.23 mg/kg intragastric 2 times a day, 14 days, individual mice, listed as DLV); 90.96 mm^3 and 265.32 mm^3 and 50.35 mm^3 in series [3] (trifluoroacetate 0.46 mg/kg intragastric 2 times a day, 14 days, individual mice, listed as DLV). Besides, the Body weight in series [1] (KG-1a-bearing mice, 0.23 mg/kg intragastric 2 times a day, listed as DLV, 0.23 mg/kg) is 19.5 g and 17.8 g and 19.6 g; in series [1] (KG-1a-bearing mice, 0.46 mg/kg intragastric 2 times a day, listed as DLV, 0.46 mg/kg) it was 19.6 g and 18.5 g and 18.8 g.

In the case of `CC(C)[C@H](N)C(=O)O[C@@H]1[C@@]2(C(C)C)O[C@H]2[C@@H]2O[C@]23[C@]12O[C@H]2C[C@H]1C2=C(CC[C@@]13C)C(=O)OC2` [14-L-Valine-TPL, 14-Levo-Valine-Triptolide], the pIC50 (commonly −log10 of the IC50, conventionally taken in molar units) in the series on THP-1 is 8.30; with KG-1 it was 8.05. In addition, the Body weight in series [1] (K562/ADR-bearing mice, 0.2 mg/kg intragastric 2 times a day, listed as LV, 0.2 mg/kg) was 18 g and 22.2 g and 22 g; in series [1] (K562/ADR-bearing mice, 0.4 mg/kg intragastric 2 times a day, listed as LV, 0.4 mg/kg) it was 21.2 g and 20.8 g and 21.1 g. Also, the “growth of K562/ADR cells in mice in vivo (in words)” value in series [2] (14 days) is given as “significantly inhibit the growth”. The Tumor volume in series [2] (trifluoroacetate 0.2 mg/kg intragastric 2 times a day, 14 days, individual mice, listed as LV) is 73.63 mm^3 and 0 mm^3 and 159.87 mm^3; in series [2] (trifluoroacetate 0.4 mg/kg intragastric 2 times a day, 14 days, individual mice, listed as LV), 30.71 mm^3 and 96.79 mm^3 and 0 mm^3.

Regarding `CC(C)[C@]12O[C@H]1[C@@H]1O[C@]13[C@]1(O[C@H]1C[C@H]1C4=C(CC[C@@]13C)C(=O)OC4)[C@@H]2OCOP(=O)(O)O` [Minnelide], the toxic effect result with pancreatic cancer (at a dosage effective to tumor regression) is “no significant toxic effect”. The survival of mice entry in the series with pancreatic cancer (nude mouse model of pancreatic cancer) was “prolonged the survival of mice”.

(Values after US10238623B2, “C14-hydroxyl esterified amino acid derivative of triptolide, and preparation method and use thereof” (HANGZHOU WEBEN PHARMACEUTICALS INC, priority 2015, dated 2019).)
